Melting point and IC50 data for 35 compounds are collected here from US8242118B2, “Arylsulfonamide derivatives for use as CCR3 antagonists in the treatment of inflammatory and immunological disorders” (Axikin Pharmaceuticals Inc., priority 2001, dated 2012).

In one series the target is T1, Human CCR3 (Homo sapiens, UniProt P51677).
T1 construct: The cloned CCR3 cDNA was constructed with pcDNA3 vector and transfected into a IC562 cell line; expressed in transfected cells
T1 sequence (P51677 1-355): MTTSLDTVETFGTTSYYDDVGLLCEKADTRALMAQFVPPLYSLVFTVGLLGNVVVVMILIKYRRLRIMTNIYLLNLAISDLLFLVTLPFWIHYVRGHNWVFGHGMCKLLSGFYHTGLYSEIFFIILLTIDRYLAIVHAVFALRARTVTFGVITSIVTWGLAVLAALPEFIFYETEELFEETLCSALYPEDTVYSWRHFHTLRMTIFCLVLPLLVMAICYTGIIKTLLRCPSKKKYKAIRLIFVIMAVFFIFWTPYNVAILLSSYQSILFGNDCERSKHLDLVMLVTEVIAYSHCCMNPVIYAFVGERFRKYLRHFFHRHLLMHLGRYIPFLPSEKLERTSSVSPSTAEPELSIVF
Kind of series: Calcium mobilization assay, eotaxin-stimulated. The series is classed as cell-based. The settings on record: human CCR3-transformed K562 cells, 10 nM eotaxin; compounds of about 40 to 90% purity; read-out: Activity grade Ca2+ (IC50 class). In outline:
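Eotaxin (10 nM final) triggered calcium flux, monitored 60 s with Fluo-3AM, in butyrate-pretreated (5 mM, 20–24 h) CCR3-transfected K562 cells. Compounds preincubated 10 min; percent inhibition per concentration yielded IC50.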

In the case of `Cl.O=[N+]([O-])c1ccc(Oc2cc(Cl)cc(Cl)c2)c(S(=O)(=O)N2CCCNCC2)c1` [Example 1-91], the melting point is 261 to 263 °C. On Human CCR3, the IC50 is less than 1000 nM.

In turn, `Cc1ccc(C(C)C)c(Oc2ccc([N+](=O)[O-])cc2S(=O)(=O)N2CCNCC2)c1.Cl` [Example 1-66] came in with a melting point of 193 °C. In addition, on Human CCR3, the IC50 fell in the range of 1000 to 10000 nM.

Take `Cc1cc(C)cc(Oc2ccc([N+](=O)[O-])cc2S(=O)(=O)N2CCN(CCO)CC2)c1` [Example 1-88]: the melting point lay in the range of 163 to 164 °C. Moreover, the IC50 on Human CCR3 is less than 1000 nM.

Turning to `COc1cc(Oc2cc(C)cc(C)c2)c(S(=O)(=O)N2CCNCC2)cc1[N+](=O)[O-].Cl` [Example 1-47], the melting point is 188 °C. Besides, the IC50 at Human CCR3 is greater than 10000 nM.

Compound `Cl.O=[N+]([O-])c1ccc(Oc2cccc(C(F)(F)F)c2)c(S(=O)(=O)N2CCNCC2)c1` [Example 1-34] registered a melting point of 128 °C. Further, the IC50 on Human CCR3 was less than 1000 nM.

Turning to `Cl.O=S(=O)(c1cc(Cl)ccc1Oc1cc(Cl)cc(Cl)c1)N1CCNCC1` [Example 1-56], the melting point was in the range of 255 to 257 °C. Further, the half-maximal inhibitory concentration (IC50) at Human CCR3 was less than 1000 nM.

The compound `Cc1ccc(C)c(Oc2ccc([N+](=O)[O-])cc2S(=O)(=O)N2CCNCC2)c1.Cl` [Example 1-64] had a melting point of 141 °C. Besides, the IC50 at Human CCR3 is less than 1000 nM.

With `Cc1cc(Oc2ccc([N+](=O)[O-])cc2S(=O)(=O)N2CCNCC2)cc(C)c1Cl` [Example 1-79], the melting point lay within 178 to 179 °C. Also, the concentration for half-maximal inhibition (IC50) at Human CCR3 is less than 1000 nM.

Take `Cc1cc(Oc2ccc([N+](=O)[O-])cc2S(=O)(=O)N2CCNCC2)ccc1Cl.Cl` [Example 1-60]: the melting point was found to be 204 °C. The IC50 at Human CCR3 lay within 1000 to 10000 nM.

With `O=[N+]([O-])c1ccc(Oc2cc(Cl)ccc2Cl)c(S(=O)(=O)N2CCNCC2)c1` [Example 1-84], the melting point was in the range of 179 to 180 °C. For the same compound, on Human CCR3, the IC50 was less than 1000 nM.

Regarding `Cl.O=[N+]([O-])c1ccc(Oc2cccc(Br)c2)c(S(=O)(=O)N2CCNCC2)c1` [Example 1-39], the melting point came out at 119 °C. Besides, the IC50 on Human CCR3 is less than 1000 nM.

Compound `Cc1cc(C)c(C)c(Oc2ccc([N+](=O)[O-])cc2S(=O)(=O)N2CCNCC2)c1.Cl` [Example 1-65] yielded a melting point of 187 °C. In addition, the IC50 on Human CCR3 is less than 1000 nM.

With `Cc1ccc(Oc2ccc([N+](=O)[O-])cc2S(=O)(=O)N2CCNCC2)cc1C.Cl` [Example 1-63], the melting point was found to be 142 °C. In addition, the IC50 on Human CCR3 is less than 1000 nM.

Take `Cl.N[C@H]1CCN(S(=O)(=O)c2cc([N+](=O)[O-])ccc2Oc2cc(Cl)cc(Cl)c2)C1` [Example 1-100]: the melting point fell in the range of 256 to 258 °C. The IC50 at Human CCR3 is less than 1000 nM.

The compound `Cl.O=[N+]([O-])c1ccc(Oc2cc(Cl)cc(Cl)c2F)c(S(=O)(=O)N2CCNCC2)c1` [Example 1-77] returned a melting point of 263 °C. Moreover, the IC50 on Human CCR3 was less than 1000 nM.

Consider `Cl.O=[N+]([O-])c1ccc(Oc2c(F)c(F)cc(F)c2F)c(S(=O)(=O)N2CCNCC2)c1` [Example 1-74], for which the melting point was 104 °C. The IC50 on Human CCR3 is less than 1000 nM.

As to `CC(=O)c1ccccc1Oc1ccc([N+](=O)[O-])cc1S(=O)(=O)N1CCNCC1.Cl` [Example 1-30], the melting point fell in the range of 194 to 200 °C. Further, the IC50 on Human CCR3 is greater than 10000 nM.

The compound `Cc1cc(Oc2ccc([N+](=O)[O-])cc2S(=O)(=O)N2CCNCC2)cc(C(C)C)c1.Cl` [Example 1-8] gave a melting point of 182 to 185 °C. Besides, the IC50 at Human CCR3 is less than 1000 nM.

With `CC(C)c1cccc(Oc2ccc([N+](=O)[O-])cc2S(=O)(=O)N2CCNCC2)c1.Cl` [Example 1-9], the melting point fell in the range of 168 to 170 °C. For the same compound, the IC50 on Human CCR3 was less than 1000 nM.

The compound `COc1cc(C)cc(Oc2ccc([N+](=O)[O-])cc2S(=O)(=O)N2CCNCC2)c1.Cl` [Example 1-37] showed a melting point of 113 °C. Also, the IC50 at Human CCR3 is less than 1000 nM.

Compound `Cl.O=S(=O)(c1cc(F)ccc1Oc1cc(Cl)cc(Cl)c1)N1CCNCC1` [Example 1-51] displayed a melting point of 145 °C. Moreover, the IC50 at Human CCR3 was less than 1000 nM.

`COc1cc(OC)cc(Oc2ccc([N+](=O)[O-])cc2S(=O)(=O)N2CCNCC2)c1.Cl` [Example 1-5]: the melting point lay in the range of 211 to 213 °C. Moreover, at Human CCR3, the IC50 is greater than 10000 nM.

In turn, `Cl.N#Cc1cccc(Oc2ccc([N+](=O)[O-])cc2S(=O)(=O)N2CCNCC2)c1` [Example 1-10] had a melting point of 265 to 267 °C. Also, at Human CCR3, the IC50 was 1000 to 10000 nM.

With `CN(C)c1cccc(Oc2ccc([N+](=O)[O-])cc2S(=O)(=O)N2CCNCC2)c1.Cl` [Example 1-32], the melting point stood at 182 °C. Besides, the IC50 at Human CCR3 was 1000 to 10000 nM.

`Cc1ccccc1Oc1ccc([N+](=O)[O-])cc1S(=O)(=O)N1CCNCC1.Cl` [Example 1-12] registered a melting point of 167 to 169 °C. Further, on Human CCR3, the IC50 was 1000 to 10000 nM.

For `O=[N+]([O-])c1ccc(Oc2cc(Br)cc(Br)c2)c(S(=O)(=O)N2CCNCC2)c1` [Example 1-76], the melting point was found to be 205 °C. In addition, the half-maximal inhibitory concentration (IC50) at Human CCR3 was less than 1000 nM.

Take `Cl.O=[N+]([O-])c1ccc(Oc2cc(Cl)cc(Cl)c2Cl)c(S(=O)(=O)N2CCNCC2)c1` [Example 1-86]: the melting point fell in the range of 188 to 189 °C. In addition, the IC50 on Human CCR3 is less than 1000 nM.

The compound `O=[N+]([O-])c1ccc(Oc2cc(Cl)cc(Cl)c2)c(S(=O)(=O)N2CC3CCCNC3C2)c1` (stereo not shown) [Example 1-48] returned a melting point of 170 °C. Besides, on Human CCR3, the IC50 was less than 1000 nM.

`Cl.O=[N+]([O-])c1ccc(Oc2ccccc2Cl)c(S(=O)(=O)N2CCNCC2)c1` [Example 1-28] returned a melting point of 166 to 169 °C. Moreover, the IC50 at Human CCR3 was less than 1000 nM.

`Cc1cc(C)cc(Oc2cc(C)c([N+](=O)[O-])cc2S(=O)(=O)N2CCNCC2)c1.Cl` [Example 1-44]: the melting point amounted to 159 °C. Also, the IC50 at Human CCR3 lay in the range of 1000 to 10000 nM.

For the compound `CC(C)(C)c1cc(Oc2ccc([N+](=O)[O-])cc2S(=O)(=O)N2CCNCC2)cc(C(C)(C)C)c1.Cl` [Example 1-7], the melting point fell in the range of 141 to 143 °C. Further, the IC50 at Human CCR3 was greater than 10000 nM.

Compound `Cc1cc(Oc2cc(Cl)cc(Cl)c2)c(S(=O)(=O)N2CCNCC2)cc1[N+](=O)[O-].Cl` [Example 1-45] had a melting point of 168 °C. Besides, the IC50 on Human CCR3 was less than 1000 nM.

As for `Cl.O=[N+]([O-])c1ccc(Oc2cc(Cl)cc(Cl)c2)c(S(=O)(=O)N2CCNCC2)c1` [Example 1-33], the melting point was 260 to 264 °C. The IC50 on Human CCR3 was less than 1000 nM.

Consider `CCCCc1ccccc1Oc1ccc([N+](=O)[O-])cc1S(=O)(=O)N1CCNCC1.Cl` [Example 1-40], for which the melting point lay within 140 to 150 °C. Also, the IC50 on Human CCR3 was less than 1000 nM.

`Cl.O=[N+]([O-])c1ccc(Oc2cccc3ccccc23)c(S(=O)(=O)N2CCNCC2)c1` [Example 1-11] gave a melting point of 196 to 198 °C. Also, on Human CCR3, the IC50 is less than 1000 nM.
